# Source: patent publication US20220401439A1, “INTRANASAL PHARMACEUTICAL COMPOSITIONS OF CGRP INHIBITORS” (Biohaven Pharmaceutical Holding Company Ltd., priority 2019, published 2022)
# Marks after values point to notes of the source that are not given here.
# Key:
# [1] = clinical; settings: human, in vivo; for AUC(0-inf): AUC[0-inf] (ng · h/mL) GM; for AUC(0-t): AUC[0-t] (ng · h/mL) GM; for Cmax: Cmax (ng/mL) GM
# Description: BHV3500-101 is a completed Phase 1, single-center, placebo-controlled, randomized, double-blind, sequential SAD study. This study consisted of up to 11 cohorts.
# In total, 41 subjects were included in the PK analyses.
# [2] = Phase 2/3 trial BHV3500-201 (Study 201), safety, adverse events and liver function tests; assay type: in vivo, human
# Description: The majority (>80%) of AEs were mild in intensity.
# [3] = pH-solubility profile of drug substance; assay type: physicochemical; settings: pH = 8.2; mono-hydrochloride salt form
# [4] = logD of drug substance; assay type: physicochemical; settings: mono-hydrochloride salt form
# [5] = system: patients receiving acute treatment of migraine; test: Phase 2/3 trial BHV3500-201 (Study 201), efficacy in acute treatment of migraine; assay type: in vivo, human
# [6] = 5 mg single dose, mITT subjects, Overall
# [7] = 5 mg single dose, mITT, Prophylactic migraine medication use: No
# [8] = 5 mg single dose, mITT, Prophylactic migraine medication use: Yes
# [9] = 10 mg single dose, mITT subjects, Overall
# [10] = 10 mg single dose, mITT, Prophylactic migraine medication use: No
# [11] = 10 mg single dose, mITT, Prophylactic migraine medication use: Yes
# [12] = 10 mg single intranasal dose, p < 0.05
# [13] = 20 mg single dose, mITT subjects, Overall
# [14] = 20 mg single dose, mITT, Prophylactic migraine medication use: No
# [15] = 20 mg single dose, mITT, Prophylactic migraine medication use: Yes
# [16] = 20 mg single intranasal dose, p < 0.05
# [17] = zavegepant 5 mg vs placebo, mITT, CMH weighting
smiles,measurement,setting,value
"Cc1cc(C[C@@H](NC(=O)N2CCC(c3cc4ccccc4[nH]c3=O)CC2)C(=O)N2CCN(C3CCN(C)CC3)CC2)cc2cn[nH]c12 [Zavegepant, (R)—N-(3-(7-methyl-1H-indazol-5-yl)-1-(4-(1-methylpiperidin-4-yl)piperazin-1-yl)-1-oxopropan-2-yl)-4-(2-oxo-1,2-dihydroquinolin-3-yl)piperidine-1-carboxamide]","median Tmax, range across doses",[1],32.4 to 46.2 min
same,"median t1/2, range across doses",[1],150 to 264 min
same,AUC(0-inf),"[1]; inhaled or intranasal, 1 mg",3.5 ng·h/mL
same,AUC(0-t),"[1]; inhaled or intranasal, 1 mg",2.34 ng·h/mL
same,Cmax,"[1]; inhaled or intranasal, 1 mg",1.34 ng/mL
same,Tmax,"[1]; inhaled or intranasal, 1 mg, Tmax (h) Median",57.6 min
same,half-life,"[1]; inhaled or intranasal, 1 mg, t1/2 el (h) Median",98.4 min
same,AUC(0-inf),"[1]; inhaled or intranasal, 3 mg",9.75 ng·h/mL
same,AUC(0-t),"[1]; inhaled or intranasal, 3 mg",7.85 ng·h/mL
same,Cmax,"[1]; inhaled or intranasal, 3 mg",3.68 ng/mL
same,Tmax,"[1]; inhaled or intranasal, 3 mg, Tmax (h) Median",46.8 min
same,half-life,"[1]; inhaled or intranasal, 3 mg, t1/2 el (h) Median",134 min
same,AUC(0-inf),"[1]; inhaled or intranasal, 5 mg",20.9 ng·h/mL
same,AUC(0-t),"[1]; inhaled or intranasal, 5 mg",18.8 ng·h/mL
same,Cmax,"[1]; inhaled or intranasal, 5 mg",7.8 ng/mL
same,Tmax,"[1]; inhaled or intranasal, 5 mg, Tmax (h) Median",36 min
same,half-life,"[1]; inhaled or intranasal, 5 mg, t1/2 el (h) Median",142 min
same,Tmax (h) Median,"[1]; inhaled or intranasal, 10 mg",0.54 h
same,AUC(0-inf),"[1]; inhaled or intranasal, 10 mg",28.5 ng·h/mL
same,AUC(0-t),"[1]; inhaled or intranasal, 10 mg",26.2 ng·h/mL
same,Cmax,"[1]; inhaled or intranasal, 10 mg",13.4 ng/mL
same,Tmax,"[1]; inhaled or intranasal, 10 mg, Tmax (h) Median",32.4 min
same,half-life,"[1]; inhaled or intranasal, 10 mg, t1/2 el (h) Median",175 min
same,Tmax,"[1]; inhaled or intranasal, Tmax (h) Median",46.2 min
same,half-life,"[1]; inhaled or intranasal, t1/2 el (h) Median",143 min
same,Tmax,"[1]; median Tmax, range across doses",32.4 to 57.6 min
same,half-life,"[1]; median t1/2, range across doses",96 to 282 min
same,ALT or AST > 3 × ULN (subjects),[2]; 5 mg (N = 388),0
same,Bilirubin > 2 × ULN (subjects),[2]; 5 mg (N = 388),0
same,ALT or AST > 3 × ULN (subjects),[2]; 10 mg (N = 394),0
same,Bilirubin > 2 × ULN (subjects),[2]; 10 mg (N = 394),0
same,ALT or AST > 3 × ULN (subjects),[2]; 20 mg (N = 403),0
same,Bilirubin > 2 × ULN (subjects),[2]; 20 mg (N = 403),0
same,ALT or AST > 3 × ULN (subjects),[2]; All zavegepant (N = 1185),0
same,Bilirubin > 2 × ULN (subjects),[2]; All zavegepant (N = 1185),0
same,"hepatotoxicity signal (AST or ALT >3xULN, total bilirubin >2xULN)",[2]; any treatment arm,no signal of hepatoxicity
same,tolerability and safety,"[2]; intranasal, single dose trial",well tolerated and safe
same,AEs mild in intensity,[2]; single dose trial,> 80%
same,pH-solubility profile,[3],105 mg/mL at pH = 8.2
same,logD,[4],1.21
same,"Pain Relief at 15 Minutes Post-Dose, (%) of subjects",[5]; [6],(14.2) %
same,"Pain Relief at 15 Minutes Post-Dose, n/N",[5]; [6],55/387
same,"Pain Relief at 15 Minutes Post-Dose, Stratified percentage difference (BHV-3500-Placebo)","[5]; 5 mg single dose, mITT subjects, Overall, CMH weighting",4.2%
same,"Pain Relief at 15 Minutes Post-Dose, (%) of subjects",[5]; [7],(14.7) %
same,"Pain Relief at 15 Minutes Post-Dose, Percentage difference (BHV-3500-Placebo)",[5]; [7],4.6%
same,"Pain Relief at 15 Minutes Post-Dose, n/N",[5]; [7],49/333
same,"Pain Relief at 15 Minutes Post-Dose, (%) of subjects",[5]; [8],(11.1) %
same,"Pain Relief at 15 Minutes Post-Dose, Percentage difference (BHV-3500-Placebo)",[5]; [8],1.9%
same,"Pain Relief at 15 Minutes Post-Dose, n/N",[5]; [8],8/54
same,2 Hour Endpoint Freedom from MBS (Most Bothersome Symptom),[5]; 5 mg single intranasal dose,39.0%
same,2 Hour Endpoint Pain Freedom,[5]; 5 mg single intranasal dose,19.6%
same,"Pain Relief at 15 Minutes Post-Dose, (%) of subjects",[5]; [9],(18.2) %
same,"Pain Relief at 15 Minutes Post-Dose, n/N",[5]; [9],71/331
same,"Pain Relief at 15 Minutes Post-Dose, Stratified percentage difference (BHV-3500-Placebo)","[5]; 10 mg single dose, mITT subjects, Overall, CMH weighting",8.2%
same,"Pain Relief at 15 Minutes Post-Dose, (%) of subjects",[5]; [10],(17.3) %
same,"Pain Relief at 15 Minutes Post-Dose, Percentage difference (BHV-3500-Placebo)",[5]; [10],7.2%
same,"Pain Relief at 15 Minutes Post-Dose, n/N",[5]; [10],59/341
same,"Pain Relief at 15 Minutes Post-Dose, (%) of subjects",[5]; [11],(24.0) %
same,"Pain Relief at 15 Minutes Post-Dose, Percentage difference (BHV-3500-Placebo)",[5]; [11],14.7%
same,"Pain Relief at 15 Minutes Post-Dose, n/N",[5]; [11],12/50
same,2 Hour Endpoint Freedom from MBS (Most Bothersome Symptom),[5]; [12],41.9%*
same,2 Hour Endpoint Pain Freedom,[5]; [12],22.5%*
same,return to normal function,[5]; 20 mg,as early as 30 minutes
same,"Pain Relief at 15 Minutes Post-Dose, (%) of subjects",[5]; [13],(14.7) %
same,"Pain Relief at 15 Minutes Post-Dose, n/N",[5]; [13],59/402
same,"Pain Relief at 15 Minutes Post-Dose, Stratified percentage difference (BHV-3500-Placebo)","[5]; 20 mg single dose, mITT subjects, Overall, CMH weighting",4.7%
same,"Pain Relief at 15 Minutes Post-Dose, (%) of subjects",[5]; [14],(13.3) %
same,"Pain Relief at 15 Minutes Post-Dose, Percentage difference (BHV-3500-Placebo)",[5]; [14],3.2%
same,"Pain Relief at 15 Minutes Post-Dose, n/N",[5]; [14],46/345
same,"Pain Relief at 15 Minutes Post-Dose, (%) of subjects",[5]; [15],(22.3) %
same,"Pain Relief at 15 Minutes Post-Dose, Percentage difference (BHV-3500-Placebo)",[5]; [15],13.5%
same,"Pain Relief at 15 Minutes Post-Dose, n/N",[5]; [15],13/57
same,2 Hour Endpoint Freedom from MBS (Most Bothersome Symptom),[5]; [16],42.5%*
same,2 Hour Endpoint Pain Freedom,[5]; [16],23.1%*
same,onset of pain relief,"[5]; 5, 10, and 20 mg single dose, stratified CMH tests, mITT subjects",pain relief as early as 15 minutes post-dose
same,durability of benefits (sustained pain freedom and pain relief 2 to 24 and 2 to 48 hours),"[5]; 5, 10 and 20 mg (pain relief 2 to 48: 5 and 10 mg), nominal p<0.05",durable and sustained without rescue medication out to 48 hours
same,pain relief and return to normal function at 2 hours,[5]; 10 and 20 mg doses,therapeutic benefits
same,comparison to placebo on co-primary endpoints of pain freedom and freedom from MBS at 2 hours,"[5]; 10 and 20 mg, single dose, p<0.05",statistically superior
same,comparison to placebo on multiple secondary endpoints demonstrating early activity,[5]; nominal p<0.05,superior to placebo
same,"Pain relief at 2 hours postdose, n/N (%)","[5]; zavegepant 5 mg intranasal single dose, mITT subjects",(57.9) %
same,"Pain relief at 30 minutes postdose, Stratified Percentage Difference (Zavegepant-Placebo)",[5]; [17],1.9%
same,"Pain relief at 60 minutes postdose, Stratified Percentage Difference (Zavegepant-Placebo)",[5]; [17],5.1%
same,"Rescue medication use within 24 hours postdose, Stratified Percentage Difference (Zavegepant-Placebo)",[5]; [17],−2.4%
same,"Sustained pain freedom from 2 to 24 hours postdose, Stratified Percentage Difference (Zavegepant-Placebo)",[5]; [17],5.3%
